Where “and” joins values, the source holds several entries; their conditions need not be identical. Identical values can stand only once. Like-named read-outs stand apart in the source and are kept apart here.
What was measured:
LLC-PK1-MDR1 cells [1] = system: LLC-PK1-MDR1 cells
Experimental: (§3) The overexpression and functional activity of P-glycoprotein (P-gp) in the LLC-PK1-MDR1 cells were rigorously validated through multiple methods.
(§4) Cells were passaged at 80−90% confluence (every 2−3 days) using trypsin-EDTA solution. […] The culture medium was replaced every other day, including 200 µL culture medium in the apical and 850 µL cell culture medium in the basolateral side. LLC-PK1 MOCK cells were used at passages of 3−30. LLC-PK1-MDR1 cells were cultured and passaged in the same manner as LLC-PK1 cells except at the density of 1 × 10^4 cells per well. LLC-PK1-MDR1 cells were used at passages of 3−25. For LLC-PK1 MOCK cells and LLC-PK1-MDR1 cells, the experiments were performed on the 4th and 7th day after seeding.
(§5) Monitoring permeability of positive control drugs. […] Samples were collected from the donor well at the start of the incubation (50 µL) as C0, and from the donor and receiver wells at the end of the incubation (50 µL). All samples were stored at - 40 °C for LC-MS/MS analysis.
(§6) Bidirectional transport experiments. […] The transwell experiments were conducted following above-mentioned procedure. […] When the recovery rate of the tested drug is below 80%, the possibility of intracellular accumulation should be considered. The polycarbonate (PC) membrane where cells are grown should be carefully peeled off from the cell culture medium and placed in 100 µL of HBSS buffer solution. […] The process was carried out on ice to prevent heat-induced degradation, applying a power in the range of 300 W for a total duration of 20 minutes. Thereafter, a quantitative analysis of the intracellular drug was conducted, and the drug recovery rate was recalculated based on this analysis.
(§7) The apparent permeability coefficient (Papp, cm/s) was calculated for each transport direction, A-B and B-A, using the following equation: Papp=dQ/dt×1/A×C0 where dQ/dt is the permeation rate (µmol/s), A is the surface area of the insert (0.33 cm^2, Corning), and C0 is the initial donor concentration (µM).
(§8) The efflux ratio (ER) is calculated as the ratio of Papp (B-A)/Papp (A-B). Recovery=TRcumrf+Cdf×VD/Cdi×VD×100% Where TRcumrf is the cumulative transported mass in the receiver chamber at the end of the incubation (nmol), Cdf is the concentration of the drug in the donor chamber at the end of the incubation (μM), VD is the volume of the donor chamber (mL), and Cdi is the initial concentration of the drug in the donor chamber (μM).
(§9) The method of the bidirectional transport experiment was the same as before.

[2] = Bidirectional transport across LLC-PK1 MOCK monolayer (Transwell); conditions: pig; for recovery at 2 h, 2 µM: pH 7.4, Recovery after correction of intracellular accumulation data, cell lysate included, mean±SD, n=3; for efflux ratio at 2 h, 2 µM: LLC-PK1, pH 7.4, ER, Papp (B-A)/Papp (A-B);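 on all read-outs here: compound quantified by LC-MS/MS in donor and receiver wells, efflux ratio as B-A over A-B Papp, recovery relative to initial donor amount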
Experimental: as §4
(§10) Samples were collected from the donor well at the start of the incubation (50 µL) as C0, and from the donor and receiver wells at the end of the incubation (50 µL). All samples were stored at - 40 °C for LC-MS/MS analysis.
as §6, §7, §8, §9

[3] = set-up: method as in not given; conditions: stated without method; ref not given; cited from earlier work
P-gp (human MDR1) [4] = assay: Bidirectional transport across LLC-PK1-MDR1 monolayer stably expressing human MDR1 (P-gp) (Transwell); conditions: pig; for efflux ratio at 2 h, 2 µM: LLC-PK1, pH 7.4, ER, LLC-PK1-MDR1, Papp (B-A)/Papp (A-B);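 on all read-outs here: 2 h incubation at 37 °C, receiver HBSS with 10 mM Hepes plus 1% BSA, LC-MS/MS of donor and receiver, recovery as receiver plus donor amount over initial donor amount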
Experimental: as §3, §4, §5, §6, §7, §8, §9

in vivo = conditions: rat
Source text: In vivo unbound brain distribution data (Kp,uu,Brain) for 16 drugs and total brain distribution data (Kp,Brain) for 16 drugs was acquired from literature. […] For each tested compound, fifteen rats were randomly divided into five groups of three rats each. […] The time of execution of the rats by CO2 inhalation after administration was optimized according to the in vivo elimination rate to achieve five concentrations of different time points. After the rats were euthanized, cardiac puncture was performed immediately to remove as much whole blood as possible (~7 ml) from the systemic circulation (Quantitatively aliquot 0.2 ml of whole blood for the determination of drug concentration in plasma). Afterwards, the brain tissue was collected immediately and rinsed repeatedly with ice-cold saline 3 times. Then, the surface saline was blotted dry with clean filter paper to remove as much residual drug in the blood vessels as possible. Plasma samples were prepared by centrifugation of the blood samples at 2,500 g for 10 minutes at 4 °C. All brain samples were homogenized by adding 4-fold volume water. All samples were stored at -40 °C before LC-MS/MS analysis. […] The brain tissue partition coefficient (Kp, brain) and brain-to-plasma unbound drug partition ratio (Kp,uu, brain) are calculated according to the following formulas, respectively: Kp,brain=AUC(0−∞,brain)/AUC(0−∞,plasma)Kp,uu,brain=Kp,brain×(fu,tissue/fu,plasma)
Free brain-to-plasma distribution coefficients (Kp,uu,brain) of 41 drugs. Brain distribution coefficients (Kp,uu,brain) were calculated for 41 drugs. […] Plasma and brain concentration-time profiles were generated, and AUC(0-t) values for both matrices were calculated using WinNolin 8.1. Kp,brain was derived as the ratio of brain-to-plasma AUC(0-t).
Kp,uu,brain values were computed by normalizing Kp,brain to unbound fractions (fu,plasma and fu,brain).

[5] = LLC-PK1 MOCK/MDR1 monolayer model, results stated for both cell lines jointly; conditions: pig
Experimental: Monitoring of TEER value and LY permeability. After the LLC-PK1 MOCK/MDR1 cells attach to the Transwell insert, TEER (Transepithelial Electrical Resistance) values were continuously recorded using a cell resistance meter (Beijing JINGONGHONGTAI Technology Co., Ltd). These TEER values represent the mean from six individual inserts (n = 6) measured per group. The TEER measurement and transport experiment were conducted at 37 °C, using a heating plate to maintain the required temperature. The transmembrane resistance was calculated using the formula TEER = (Rtotal-Rblank) × Aarea, where Rblank represents the TEER of the blank chamber.
The permeability of the Lucifer Yellow CH Dipotassium Salt (LY, 100 μM) across the monolayers was measured in apical-to-basolateral direction to monitor the integrity of the cell monolayer.
Bidirectional transport experiments. […] The transwell experiments were conducted following above-mentioned procedure.

in vitro [6] = conditions: rat, plasma
Experimental: (§1) Stocks (10 mM) of test compounds were diluted to 5 μM with plasma or tissue homogenate and dialyzed at 37 °C for 6 hours in a shaking incubator. After incubation aliquots of both plasma or tissue homogenate and buffer from the device were taken and added to equal volumes of blank buffer and plasma or tissue homogenate respectively. Samples were then diluted in acetonitrile containing an internal standard prior to centrifugation and analysis of the supernatants by LC-MS/MS. The fu, plasma was calculated using Equation 1:(1) fu,plasma=Concbuffer chamber/Concsample chamber
(§2) Unbound fractions of test drugs in plasma (fu,plasma) and brain tissue (fu,brain). For compounds with existing rat plasma or brain protein-binding data from literature or internal studies, values were directly adopted.

in vitro [7] = conditions: rat, brain homogenate
Experimental: as §1
Rat fraction unbound in brain (fu, brain) was determined as the ratio of concentration in buffer to that in brain.
as §2

LLC-PK1-MDR1 cells [8] = assay: Bidirectional transport across LLC-PK1-MDR1 monolayer stably expressing human MDR1 (P-gp) (Transwell); conditions: LLC-PK1-MDR1, positive control drugs run with each batch (n = 15), 2 µM;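 further: 2 h incubation at 37 °C, receiver HBSS with 10 mM Hepes plus 1% BSA, LC-MS/MS of donor and receiver, recovery as receiver plus donor amount over initial donor amount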
Experimental: as §3, §4, §5, §6, §7, §8, §9

in vitro [9] = conditions: pig, LLC-PK1 MOCK cell monolayer (Transwell), pH 7.4
Experimental: as §4, §10, §6, §7, §8, §9

P-gp (human MDR1) [10] = assay: in vitro; conditions: pig, LLC-PK1, pH 7.4
Experimental: as §3, §4, §5, §6, §7, §8, §9

[11] = footnote b, species not stated; ref https://go.drugbank.com; cited from earlier work
LLC-PK1 MOCK cells = assay: Bidirectional transport across LLC-PK1 MOCK monolayer (Transwell); conditions: LLC-PK1 MOCK, 2 µM, 2 h, mean ± s, n = 3; BLQ = below 2 nM;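 further: compound quantified by LC-MS/MS in donor and receiver wells, efflux ratio as B-A over A-B Papp, recovery relative to initial donor amount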
Experimental: as §4, §10, §6, §7, §8, §9

[12] = cited from earlier work
[13] = LLC-PK1, pH 7.4, Papp A-B, LLC-PK1 MOCK, 2 µM, 2 h, mean ± s, n = 3, BLQ = below 2 nM
[14] = LLC-PK1 MOCK cell monolayer (Transwell), B-A, LLC-PK1 MOCK
[15] = LLC-PK1, pH 7.4, Papp A-B, LLC-PK1-MDR1, 2 µM, 2 h, mean ± s, n = 3
[16] = LLC-PK1 MOCK and LLC-PK1-MDR1 cell monolayers (Transwell), pH 7.4, Recovery after cell lysate extraction, intracellular drug included
[17] = LLC-PK1 MOCK and LLC-PK1-MDR1 cell monolayers (Transwell), pH 7.4, Recovery, bidirectional transport, uncorrected
[18] = LLC-PK1 MOCK and LLC-PK1-MDR1 cell monolayers (Transwell), pH 7.4, with bafilomycin A1 1 µM (inhibitor of lysosomal function), Recovery, with 1 µM Bafilomycin A1, bidirectional transport
[19] = LLC-PK1 MOCK cell monolayer (Transwell), A-B, LLC-PK1 MOCK

Compound	Papp B→A at 2 h, 2 µM ([2]; LLC-PK1, pH 7.4) [×10⁻⁶ cm/s]	Papp A→B at 2 h, 2 µM [2, 13] [×10⁻⁶ cm/s]	recovery at 2 h, 2 µM [2, 14] [%]	pKa [3]	Papp B→A at 2 h, 2 µM (P-gp (human MDR1) [4]; LLC-PK1, pH 7.4) [×10⁻⁶ cm/s]	Papp A→B at 2 h, 2 µM (P-gp (human MDR1) [4]; [15]) [×10⁻⁶ cm/s]	recovery at 2 µM [5, 16] [%]	recovery at 2 µM [5, 17] [%]	recovery at 2 µM [5, 18] [%]	fraction unbound at 6 h, 5 µM (in vitro [6])	fraction unbound at 6 h, 5 µM (in vitro [7])	recovery at 2 h, 2 µM (in vitro [9]) [%]	recovery at 2 h, 2 µM (P-gp (human MDR1) [10]) [%]	Papp A-B (LLC-PK1 MOCK cells)	efflux ratio at 2 h, 2 µM ([2]; LLC-PK1 MOCK)	efflux ratio at 2 h, 2 µM (P-gp (human MDR1) [4])	further results
CCN(CC)CCNC(=O)c1c(C)[nH]c(/C=C2\C(=O)Nc3ccc(F)cc32)c1C [Sunitinib]	6.21 ± 0.2	9.31 ± 0.74	89.2 ± 8.92	> 7	21.8 ± 1.08	2.23 ± 0.21	> 80	< 80	80 to 120	0.017	< 0.01	–	–	–	–	–	recovery (LLC-PK1-MDR1 cells [1]): 116% and 97%; Kp (in vivo; SD, iv, 1 mg/kg, Kp, Brain): 0.965; Kp (in vivo; SD, iv, 1 mg/kg, Kp,uu,Brian): 0.563
COCCc1ccc(OCC(O)CNC(C)C)cc1 (stereo not shown) [Metoprolol]	24 ± 1.39	30.1 ± 3.88	–	–	–	–	–	–	–	–	–	114 ± 8.95	116 ± 1.08	–	–	–	Papp A→B at 2 h, 2 µM ([2]; LLC-PK1, pH 7.4, Papp (A-B), LLC-PK1 MOCK, positive control drugs run with each batch (n = 15), 2 µM): > 20 ×10⁻⁶ cm/s; Papp A-B (LLC-PK1-MDR1 cells [8]): exceeded 20 × 10^−⁶ cm/s
COc1cccc2c1C(=O)c1c(O)c3c(c(O)c1C2=O)C[C@@](O)(C(=O)CO)C[C@@H]3O[C@H]1C[C@H](N)[C@H](O)[C@H](C)O1 [Doxorubicin]	0.09 ± 0.01	–	–	–	3.47 ± 0.39	–	–	–	–	–	< 0.01	–	–	BLQ	–	–	Protein binding in plasma [11]: 75^b %; Papp A→B at 2 h, 2 µM (P-gp (human MDR1) [4]; LLC-PK1, pH 7.4): 0.95 ± 0.16 ×10⁻⁶ cm/s; Kp uu (in vivo; SD, iv, 1 mg/kg): < 0.012; Kp (in vivo; SD, iv, 1 mg/kg, Kp, Brain): 0.291; Kp (in vivo; SD, iv, 1 mg/kg, Kp,uu,Brian): 0.012
COc1ccc2cc1Oc1ccc(cc1)C[C@H]1c3cc(c(OC)cc3CCN1C)Oc1c(OC)c(OC)cc3c1[C@H](C2)N(C)CC3 [Tetrandrine]	4.19 ± 0.77	–	–	> 7	13 ± 2.24	–	–	–	–	–	–	–	–	–	1.33	8.4	Papp A→B at 2 h, 2 µM ([2]; LLC-PK1, pH 7.4): 3.15 ± 0.23 ×10⁻⁶ cm/s; recovery at 2 h, 2 µM ([2]; A-B, LLC-PK1 MOCK): 54.1 ± 7.24%; recovery at 2 h, 2 µM ([2]; B-A, LLC-PK1 MOCK): 93.5 ± 6.72%; Papp A→B at 2 h, 2 µM (P-gp (human MDR1) [4]; LLC-PK1, pH 7.4): 1.55 ± 0.29 ×10⁻⁶ cm/s; recovery at 2 µM ([5]; pH 7.4, Recovery after cell lysate extraction, intracellular drug included): > 80%; recovery at 2 µM ([5]; pH 7.4, Recovery, bidirectional transport, uncorrected): < 80%; recovery at 2 µM ([5]; pH 7.4, Recovery, with 1 µM Bafilomycin A1, bidirectional transport): 80 to 120%; Kp, Brain ([12]; ref Wang [2024]): 24.3; Kp,uu,Brian ([12]; ref Wang [2024]): 0.80
Fc1ccc([C@@H]2CCNC[C@H]2COc2ccc3c(c2)OCO3)cc1 [Paroxetine]	14.8 ± 0.57	7.65 ± 0.2	92.7 ± 4.03	> 7	10.9 ± 0.35	5.15 ± 0.55	> 80	< 80	80 to 120	0.021	< 0.01	54.1 ± 1.86	–	–	1.93	2.11	recovery at 2 h, 2 µM [2, 19]: 97.6 ± 1.99%; Kp (in vivo; Kp,uu,Brian): 1.57; Kp, Brain ([12]; ref O’Brien et al. [2012]): 3.307
CN(Cc1cnc2nc(N)nc(N)c2n1)c1ccc(C(=O)N[C@@H](CCC(=O)O)C(=O)O)cc1 [Methotrexate]	–	–	–	–	0.45 ± 0.05	0.55 ± 0.1	–	–	–	–	–	85.8 ± 4.58	83.3 ± 5.67	BLQ	–	0.81	Papp B-A (LLC-PK1 MOCK cells): BLQ; Kp, Brain ([12]; ref Fridén [2009]): 0.004; Kp,uu,Brian ([12]; ref Fridén [2009]): 0.006
CN(C)CCC=C1c2ccccc2CCc2ccccc21 [Amitriptyline]	13.8 ± 1.58	9.98 ± 0.69	90 ± 9.68	> 7	12.7 ± 1.19	6.84 ± 0.72	> 80	< 80	80 to 120	–	–	–	–	–	1.38	1.85	recovery at 2 h, 2 µM [2, 19]: 80.01 ± 0.69%; Kp, Brain ([12]; ref Fridén [2009]): 20.15; Kp,uu,Brian ([12]; ref Fridén [2009]): 0.73
CC(C)(C)NCC(O)c1ccc(O)c(CO)c1 (stereo not shown) [Salbutamol]	0.21 ± 0.02	–	–	–	2.66 ± 0.21	1.88 ± 0.35	–	–	–	0.78	0.315	98.1 ± 2.21	98.2 ± 0.36	BLQ	–	1.42	Kp uu (in vivo): 0.01; Kp, Brain ([12]; footnote a, ref Internal data): 0.021^a

Reference: publication PMC12667295, “A surrogate barrier model for high-throughput blood-brain barrier permeability prediction: integrating LLC-PK1-MOCK/MDR1 Cells and lysosomal trapping correction” (Drug Delivery, 2025)
